In ChEMBL document CHEMBL1201862, “PubChem BioAssay data set” (2004):
Activity calls are given as the source filed them.

Key:
Protein skinhead-1 = target: T1, Protein skinhead-1 (Caenorhabditis elegans, UniProt P34707); assay type: functional
T1 sequence (P34707 whole entry): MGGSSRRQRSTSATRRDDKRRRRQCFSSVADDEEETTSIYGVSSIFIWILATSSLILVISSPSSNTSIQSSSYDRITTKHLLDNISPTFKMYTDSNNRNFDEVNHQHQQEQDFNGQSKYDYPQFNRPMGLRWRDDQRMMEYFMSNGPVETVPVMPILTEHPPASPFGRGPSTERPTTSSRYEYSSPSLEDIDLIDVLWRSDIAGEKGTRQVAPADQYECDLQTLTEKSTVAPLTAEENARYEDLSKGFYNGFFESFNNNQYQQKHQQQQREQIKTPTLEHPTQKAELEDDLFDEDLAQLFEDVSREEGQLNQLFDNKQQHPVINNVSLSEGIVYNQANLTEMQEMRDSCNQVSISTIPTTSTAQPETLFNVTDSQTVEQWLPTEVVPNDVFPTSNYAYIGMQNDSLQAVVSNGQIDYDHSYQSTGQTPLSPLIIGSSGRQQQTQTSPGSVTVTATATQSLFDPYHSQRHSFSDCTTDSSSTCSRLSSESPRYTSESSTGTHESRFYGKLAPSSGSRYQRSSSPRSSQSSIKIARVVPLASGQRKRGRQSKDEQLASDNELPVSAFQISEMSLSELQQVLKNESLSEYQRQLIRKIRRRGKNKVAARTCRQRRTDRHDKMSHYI

[1] = target: T2, Corticotropin-releasing factor receptor 2/Corticotropin-releasing factor-binding protein (Homo sapiens, UniProt P24387+Q13324); experiment: activators of CRF receptor 2 with binding protein – uHTS hits, confirmation (AID 602473); assay type: functional; settings: read-out: EC50_Mean
T2 sequence (Q13324 whole entry): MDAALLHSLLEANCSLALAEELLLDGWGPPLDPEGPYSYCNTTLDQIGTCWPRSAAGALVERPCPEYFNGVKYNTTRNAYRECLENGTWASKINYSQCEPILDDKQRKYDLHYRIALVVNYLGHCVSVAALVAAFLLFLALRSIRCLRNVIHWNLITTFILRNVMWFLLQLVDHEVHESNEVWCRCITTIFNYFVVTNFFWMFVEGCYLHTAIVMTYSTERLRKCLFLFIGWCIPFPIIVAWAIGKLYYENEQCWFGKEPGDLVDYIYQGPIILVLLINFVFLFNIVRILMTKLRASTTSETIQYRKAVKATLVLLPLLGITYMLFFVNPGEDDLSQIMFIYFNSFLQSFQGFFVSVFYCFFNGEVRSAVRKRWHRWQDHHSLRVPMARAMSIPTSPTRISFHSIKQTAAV
T2 sequence (P24387 whole entry): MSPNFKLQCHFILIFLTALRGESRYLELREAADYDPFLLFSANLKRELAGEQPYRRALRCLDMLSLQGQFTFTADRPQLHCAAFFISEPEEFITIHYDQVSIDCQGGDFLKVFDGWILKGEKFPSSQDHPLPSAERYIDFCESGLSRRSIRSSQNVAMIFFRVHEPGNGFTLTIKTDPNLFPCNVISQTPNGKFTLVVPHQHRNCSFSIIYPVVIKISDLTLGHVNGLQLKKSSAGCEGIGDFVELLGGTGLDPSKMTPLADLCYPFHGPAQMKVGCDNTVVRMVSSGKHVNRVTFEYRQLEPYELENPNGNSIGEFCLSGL

Cytochrome P450 2C19 = Cytochrome P450 2C19 (Homo sapiens, UniProt P33261); experiment: Cytochrome panel assay with activity outcomes. Panel member name: p450-cyp2c19 Compounds with AC50 equal or less than 10 uM are considered active; assay type: functional
Chain of Cytochrome P450 2C19 (P33261 whole entry): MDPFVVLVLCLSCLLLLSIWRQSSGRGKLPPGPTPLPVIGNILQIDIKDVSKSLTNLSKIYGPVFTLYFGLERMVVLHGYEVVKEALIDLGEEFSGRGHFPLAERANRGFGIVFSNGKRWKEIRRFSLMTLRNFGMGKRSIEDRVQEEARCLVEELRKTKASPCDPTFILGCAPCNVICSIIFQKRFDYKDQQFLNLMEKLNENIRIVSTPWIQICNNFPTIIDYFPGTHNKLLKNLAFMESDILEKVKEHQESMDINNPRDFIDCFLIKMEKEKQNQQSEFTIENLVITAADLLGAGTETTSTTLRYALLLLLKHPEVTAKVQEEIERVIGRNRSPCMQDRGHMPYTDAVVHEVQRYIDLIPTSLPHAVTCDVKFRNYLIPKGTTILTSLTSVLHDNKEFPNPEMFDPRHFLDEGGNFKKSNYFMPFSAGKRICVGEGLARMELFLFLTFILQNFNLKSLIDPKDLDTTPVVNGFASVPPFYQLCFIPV

Cytochrome P450 1A2 = target: T3, Cytochrome P450 1A2 (Homo sapiens, UniProt P05177);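 further: PubChem cytochrome P450 panel assay, CYP1A2 panel member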
T3 sequence (P05177 whole entry): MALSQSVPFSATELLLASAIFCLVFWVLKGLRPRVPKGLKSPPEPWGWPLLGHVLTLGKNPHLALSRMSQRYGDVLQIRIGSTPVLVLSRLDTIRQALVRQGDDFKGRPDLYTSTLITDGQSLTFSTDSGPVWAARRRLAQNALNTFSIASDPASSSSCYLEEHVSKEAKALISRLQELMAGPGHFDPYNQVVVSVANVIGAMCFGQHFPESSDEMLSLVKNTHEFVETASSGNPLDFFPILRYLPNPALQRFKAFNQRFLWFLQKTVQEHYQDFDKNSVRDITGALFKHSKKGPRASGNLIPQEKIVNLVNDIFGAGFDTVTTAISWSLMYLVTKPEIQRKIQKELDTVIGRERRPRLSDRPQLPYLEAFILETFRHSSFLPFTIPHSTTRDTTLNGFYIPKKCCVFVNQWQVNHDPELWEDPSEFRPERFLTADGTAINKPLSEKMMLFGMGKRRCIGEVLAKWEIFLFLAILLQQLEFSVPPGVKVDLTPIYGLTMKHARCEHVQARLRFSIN

Cytochrome P450 2D6 = Cytochrome P450 2D6 (Homo sapiens, UniProt P10635);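 further: CYP2D6 member of a cytochrome P450 panel assay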
Chain of Cytochrome P450 2D6 (P10635 whole entry): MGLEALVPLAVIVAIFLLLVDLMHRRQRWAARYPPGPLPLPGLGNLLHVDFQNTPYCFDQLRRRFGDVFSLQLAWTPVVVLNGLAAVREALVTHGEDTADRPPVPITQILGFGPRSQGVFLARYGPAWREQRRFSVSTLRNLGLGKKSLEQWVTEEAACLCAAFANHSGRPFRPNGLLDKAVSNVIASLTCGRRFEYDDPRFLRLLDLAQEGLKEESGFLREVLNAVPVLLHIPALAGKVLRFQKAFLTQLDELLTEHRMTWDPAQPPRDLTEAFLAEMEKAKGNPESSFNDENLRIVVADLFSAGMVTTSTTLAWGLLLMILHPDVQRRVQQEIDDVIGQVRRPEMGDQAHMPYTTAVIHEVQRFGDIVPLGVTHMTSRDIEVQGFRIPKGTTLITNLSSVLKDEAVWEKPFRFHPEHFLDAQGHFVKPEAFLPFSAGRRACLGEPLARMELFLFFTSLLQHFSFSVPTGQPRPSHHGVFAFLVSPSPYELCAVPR

Cytochrome P450 2C9 = Cytochrome P450 2C9 (Homo sapiens, UniProt P11712)
Chain of Cytochrome P450 2C9 (P11712 whole entry): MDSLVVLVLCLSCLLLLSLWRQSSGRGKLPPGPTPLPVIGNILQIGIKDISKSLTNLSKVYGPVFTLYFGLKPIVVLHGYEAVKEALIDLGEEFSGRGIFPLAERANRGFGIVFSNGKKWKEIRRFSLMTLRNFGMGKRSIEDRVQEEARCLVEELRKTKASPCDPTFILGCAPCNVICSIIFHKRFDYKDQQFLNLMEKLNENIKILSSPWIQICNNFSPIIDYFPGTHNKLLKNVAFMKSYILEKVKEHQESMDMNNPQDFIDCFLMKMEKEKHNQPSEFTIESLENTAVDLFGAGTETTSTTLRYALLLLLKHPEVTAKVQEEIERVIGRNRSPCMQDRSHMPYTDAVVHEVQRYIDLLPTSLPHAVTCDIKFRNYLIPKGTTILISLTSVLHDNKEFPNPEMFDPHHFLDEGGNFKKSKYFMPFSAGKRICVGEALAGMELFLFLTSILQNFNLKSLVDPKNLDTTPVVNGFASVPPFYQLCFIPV

[2] = target: T4, Replicative DNA helicase DnaB (Mycobacterium tuberculosis, UniProt P9WMR3); experiment: DnaB intein splicing inhibitors, dose response, biochemical, cell-free fluorescence (AID 449749); assay type: functional
T4 sequence (P9WMR3 whole entry): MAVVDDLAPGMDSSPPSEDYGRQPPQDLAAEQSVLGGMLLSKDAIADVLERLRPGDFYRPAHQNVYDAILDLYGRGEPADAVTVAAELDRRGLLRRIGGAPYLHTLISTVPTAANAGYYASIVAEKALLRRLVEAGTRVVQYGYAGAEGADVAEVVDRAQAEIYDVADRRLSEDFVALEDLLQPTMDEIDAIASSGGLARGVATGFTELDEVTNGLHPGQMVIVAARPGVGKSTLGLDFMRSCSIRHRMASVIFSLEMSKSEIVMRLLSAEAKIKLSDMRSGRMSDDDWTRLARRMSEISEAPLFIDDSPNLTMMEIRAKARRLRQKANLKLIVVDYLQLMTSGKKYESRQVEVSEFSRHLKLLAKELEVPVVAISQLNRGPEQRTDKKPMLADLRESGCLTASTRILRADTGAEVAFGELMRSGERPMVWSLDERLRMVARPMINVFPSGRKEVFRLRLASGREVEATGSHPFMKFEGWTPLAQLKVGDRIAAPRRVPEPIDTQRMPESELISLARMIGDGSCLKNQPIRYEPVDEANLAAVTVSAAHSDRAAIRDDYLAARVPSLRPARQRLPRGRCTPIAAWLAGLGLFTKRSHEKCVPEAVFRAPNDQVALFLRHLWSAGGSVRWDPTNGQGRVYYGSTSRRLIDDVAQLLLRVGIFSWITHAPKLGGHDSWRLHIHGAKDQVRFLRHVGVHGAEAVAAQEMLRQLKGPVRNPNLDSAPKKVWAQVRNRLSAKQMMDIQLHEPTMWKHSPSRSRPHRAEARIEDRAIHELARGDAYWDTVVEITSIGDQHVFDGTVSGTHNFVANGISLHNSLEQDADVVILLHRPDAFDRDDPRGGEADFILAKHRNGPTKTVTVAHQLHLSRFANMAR

Protein RecA = target: T5, Protein RecA (Mycobacterium tuberculosis, UniProt P9WHJ3); experiment: Fluorescence Cell-Free Homogeneous Dose Retest to Identify Inhibitors of RecA-Intein Splicing Activity. [Related pubchem assays (depositor defined):AID2097, AID2223, AID489010, AID492950]; assay type: functional
T5 sequence (P9WHJ3 whole entry): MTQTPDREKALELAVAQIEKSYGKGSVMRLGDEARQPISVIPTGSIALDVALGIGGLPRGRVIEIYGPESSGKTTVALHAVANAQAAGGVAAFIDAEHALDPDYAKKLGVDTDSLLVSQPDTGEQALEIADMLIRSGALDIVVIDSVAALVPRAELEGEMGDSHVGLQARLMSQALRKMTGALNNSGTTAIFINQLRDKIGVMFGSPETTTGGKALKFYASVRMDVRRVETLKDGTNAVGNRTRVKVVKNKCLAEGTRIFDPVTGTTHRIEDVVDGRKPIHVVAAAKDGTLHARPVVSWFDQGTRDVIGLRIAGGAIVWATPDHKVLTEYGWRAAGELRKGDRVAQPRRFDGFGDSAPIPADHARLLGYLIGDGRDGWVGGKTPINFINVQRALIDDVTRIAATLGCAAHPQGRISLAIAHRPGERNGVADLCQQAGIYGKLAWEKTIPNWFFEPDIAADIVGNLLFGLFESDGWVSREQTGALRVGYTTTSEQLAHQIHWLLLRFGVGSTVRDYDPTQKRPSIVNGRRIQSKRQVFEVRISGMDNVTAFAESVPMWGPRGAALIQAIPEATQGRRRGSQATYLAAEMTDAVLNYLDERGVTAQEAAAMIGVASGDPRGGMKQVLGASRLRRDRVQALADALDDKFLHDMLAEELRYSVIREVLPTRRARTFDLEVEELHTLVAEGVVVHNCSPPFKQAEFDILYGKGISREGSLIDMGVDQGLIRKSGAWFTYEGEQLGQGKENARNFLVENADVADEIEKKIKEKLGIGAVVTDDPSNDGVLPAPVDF

| SMILES | IC50 (Protein skinhead-1) | AC50 (Cytochrome P450 1A2) | also measured |
| --- | --- | --- | --- |
| Nc1nc(-c2ccc(Oc3ccccc3)cc2)cs1 | 98.1 µM (inactive) |  |  |
| CCOC(=O)c1c(/N=C/C2C(=O)NC(=S)NC2=O)sc2c1CCC2 |  |  | EC50 [1]: > 53 µM (inactive) |
| COc1ccc(-c2ccc(C3C(C#N)=C(N)Oc4[nH]nc(C)c43)o2)cc1 (stereo not drawn) |  |  | EC50 [1]: 10.1 µM (active) |
| CCCCn1cnc2c(c(CC#N)nn2-c2ccccc2)c1=N |  | 1 µM (inconclusive) | AC50 (Cytochrome P450 2C19; read-out: AC50): 6.31 µM (inconclusive) |
| CCCC(C(=O)NCC1CCCO1)N(Cc1ccccc1)C(=O)CNS(=O)(=O)c1ccccc1 (stereo not drawn) | > 100 µM (inactive) |  |  |
| O=[N+]([O-])c1ccc2cn(-c3ccccc3)nc2c1 | 54.4 µM (inactive) |  |  |
| CC(/C=N\NC(=O)Cn1c(C)nc2ccccc21)=C\c1ccccc1 |  | 8.91 µM (inconclusive) | AC50 (Cytochrome P450 2C19; read-out: AC50): 0.562 µM (inconclusive) |
| Cc1cc(CC(=O)O)n(C)c1C(=O)c1ccc(Cl)cc1 [ZOMEPIRAC SODIUM] |  | 12.6 µM (inconclusive) |  |
| O=C(C=Cc1ccccc1)c1cc(Br)ccc1O | > 100 µM (inactive) |  |  |
| Cc1cc2ccccc2n1CCNC(=O)c1ccc(S(=O)(=O)N2CCOCC2)cc1 | > 100 µM (inactive) |  |  |
| Cc1ccccc1CNC(=O)c1ccc2sc([C@H]3C[C@H](O)[C@@H](CO)O3)nc2c1 | > 100 µM (inactive) |  |  |
| CCCC/C=C/C(NC(=O)C(C)(C)C)c1ccccc1 (stereo not drawn) |  | 20 µM (inconclusive) | AC50 (Cytochrome P450 2D6): 20 µM (inconclusive); AC50 (Cytochrome P450 2C9): 39.8 µM (inconclusive) |
| N#C/C(=C/c1ccc(-c2ccc([N+](=O)[O-])cc2)o1)c1nnc(N2CCOCC2)n1-c1ccccc1 |  |  | EC50 [1]: 11 µM (active) |
| COc1ccc(C2C(C#N)=C(N)Oc3[nH]nc(C)c32)cc1CN1CCN(c2ccc(F)cc2)CC1 (stereo not drawn) |  |  | AC50 [2]: 10.3 µM (active); EC50 (Protein RecA): 6.55 µM (active); AC50 (Cytochrome P450 2D6): 25.1 µM (inconclusive); AC50 (Cytochrome P450 2C9): 35.5 µM (inconclusive) |
| CCN(CC)Cc1c(O)c(Cl)cc2c3c(c(=O)oc12)CCCC3 |  | 11.2 µM (inconclusive) | AC50 (Cytochrome P450 2C19): inconclusive; AC50 (Cytochrome P450 2C9): 25.1 µM (inconclusive) |
| O=C(NCCNS(=O)(=O)c1ccccc1Cl)c1cc(OCC(F)(F)F)ccc1OCC(F)(F)F |  | 31.6 µM (inconclusive) | AC50 (Cytochrome P450 2D6): 22.4 µM (inconclusive); AC50 (Cytochrome P450 2C9): 12.6 µM (inconclusive) |

| SMILES | IC50 (Protein skinhead-1) | AC50 (Cytochrome P450 1A2) | also measured |
| --- | --- | --- | --- |
| Cc1ccc(CN2CC34C=CC(O3)C(C(=O)NCc3ccc5c(c3)OCO5)C4C2=O)cc1 (stereo not drawn) |  | 17.8 µM (inconclusive) | AC50 (Cytochrome P450 2C9): 12.6 µM (inconclusive) |
| O=C=Nc1ccc(Cc2ccc(N=C=O)cc2)cc1.O=c1oc(=O)c2cc3c(=O)oc(=O)c3cc12 |  | 5.01 µM (inconclusive) |  |
| Cc1noc(C)c1-c1ccc2ncnc(N3CCC(C(=O)O)CC3)c2c1 |  | 25.1 µM (inconclusive) |  |
| Nc1nc(-c2ccc(-c3ccccc3)cc2)cs1 | > 100 µM (inactive) |  |  |
| Cn1nc(C(=O)N2CCN(S(=O)(=O)c3ccccc3)CC2)c2ccccc2c1=O | > 100 µM (inactive) |  |  |
| Cc1cc(N2CCOCC2)nc(N)n1 |  |  | EC50 [1]: 10.4 µM (active) |
| CCOc1cc(NC(=O)c2ccco2)c(OCC)cc1NC(=O)CCc1ccccc1OC | > 100 µM (inactive) |  |  |
| COc1ccccc1N1CCN(CCCCN2C(=O)CCC2=O)CC1 |  | 39.8 µM (inconclusive) |  |
| CN1CCN(c2ncc3nc(-c4cccc(C#N)c4)c(=O)n(C)c3n2)CC1 |  | 12.6 µM (inconclusive) | AC50 (Cytochrome P450 2C9): 39.8 µM (inconclusive) |
| CCN(CC(=O)Nc1ccccc1C(F)(F)F)C(=O)C1CC(=O)N(Cc2ccccc2)C1 (stereo not drawn) | > 100 µM (inactive) |  |  |
| CCCc1n[nH]c2c1C(c1ccc(OC)cc1OC)C(C#N)=C(N)O2 (stereo not drawn) |  |  | AC50 [2]: 6.28 µM (active); EC50 (Protein RecA): 4.07 µM (active) |
| COc1cc(/C=C2/C(=O)N(c3ccc(Br)cc3)N=C2C)cc(OC)c1OC |  |  | AC50 [2]: 4.08 µM (active); EC50 (Protein RecA): 12.4 µM (active) |
| COc1ccccc1C(=O)Nc1ccc(Br)cc1C | > 100 µM (inactive) |  |  |
| CC1(c2ccc(Cl)cc2)NC(=O)N(CN2CCOCC2)C1=O (stereo not drawn) | > 100 µM (inactive) |  |  |
| COc1cc2c(cc1OC)C(C(=O)Nc1ccccn1)C(c1cccnc1)N(C)C2=O (stereo not drawn) |  | 25.1 µM (inconclusive) | AC50 (Cytochrome P450 2C9): 11.2 µM (inconclusive) |
| NCCCCCCCCCCNS(=O)(=O)c1cccc2c(Cl)cccc12 |  | 15.8 µM (inconclusive) |  |
